In patent US4350704A, “Substituted acyl derivatives of octahydro-1H-indole-2-carboxylic acids” (Warner-Lambert Company, priority 1981, dated 1982):
Structures can show the parent of a compound that is named as a salt.

Molecular target: T1, guinea pig serum ACE (Cavia porcellus, UniProt H0UWL7)
T1 construct: ACE from guinea pig serum; from tissue; host or cells: guinea pig serum
T1 sequence (H0UWL7 33-1302): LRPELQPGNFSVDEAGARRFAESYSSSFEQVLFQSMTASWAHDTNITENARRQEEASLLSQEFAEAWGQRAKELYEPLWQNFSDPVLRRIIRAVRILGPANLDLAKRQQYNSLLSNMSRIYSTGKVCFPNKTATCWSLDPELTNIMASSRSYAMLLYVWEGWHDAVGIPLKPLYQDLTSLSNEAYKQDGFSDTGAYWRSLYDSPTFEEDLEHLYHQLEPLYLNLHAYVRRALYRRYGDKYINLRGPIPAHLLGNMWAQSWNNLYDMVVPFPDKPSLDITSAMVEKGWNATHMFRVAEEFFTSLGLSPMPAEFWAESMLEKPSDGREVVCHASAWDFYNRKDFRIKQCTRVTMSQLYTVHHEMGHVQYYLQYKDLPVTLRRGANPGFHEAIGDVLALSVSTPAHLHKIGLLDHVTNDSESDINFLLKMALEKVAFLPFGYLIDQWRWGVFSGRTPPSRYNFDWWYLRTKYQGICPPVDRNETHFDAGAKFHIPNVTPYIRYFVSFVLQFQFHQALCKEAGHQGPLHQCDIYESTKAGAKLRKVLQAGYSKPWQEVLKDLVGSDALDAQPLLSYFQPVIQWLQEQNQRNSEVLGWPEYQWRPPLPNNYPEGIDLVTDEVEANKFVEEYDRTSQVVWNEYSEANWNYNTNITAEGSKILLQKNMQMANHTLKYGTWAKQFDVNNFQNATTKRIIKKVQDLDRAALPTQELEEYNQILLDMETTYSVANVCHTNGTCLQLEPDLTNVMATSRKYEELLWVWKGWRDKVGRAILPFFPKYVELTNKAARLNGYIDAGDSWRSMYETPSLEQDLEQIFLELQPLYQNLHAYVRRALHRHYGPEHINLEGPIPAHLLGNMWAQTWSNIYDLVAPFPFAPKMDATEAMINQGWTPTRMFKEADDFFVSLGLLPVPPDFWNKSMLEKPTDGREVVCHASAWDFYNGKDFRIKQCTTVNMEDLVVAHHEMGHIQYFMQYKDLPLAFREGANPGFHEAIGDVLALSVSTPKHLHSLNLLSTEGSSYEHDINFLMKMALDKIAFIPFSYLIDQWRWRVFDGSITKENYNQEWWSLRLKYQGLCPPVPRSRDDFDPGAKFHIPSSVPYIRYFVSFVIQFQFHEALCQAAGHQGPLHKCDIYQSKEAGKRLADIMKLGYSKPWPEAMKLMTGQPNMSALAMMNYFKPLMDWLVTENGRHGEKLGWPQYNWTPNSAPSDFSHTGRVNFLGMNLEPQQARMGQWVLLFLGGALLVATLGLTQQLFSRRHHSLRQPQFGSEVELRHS
Experiment: In vitro ACE Assay: angiotensin converting enzyme inhibitory activity
Type: biochemical
Details: 10 min preincubation, 3H-hippuryl-glycylglycine substrate, 60 minute incubation at 37° C., read-out: IC50, Activity of Compounds of Formula V
Protocol: In vitro ACE Assay: Angiotensin converting enzyme (ACE) inhibitory activity is determined by assaying guinea pig serum ACE in the presence and absence of the test compound. ACE from guinea pig serum and the test compounds are preincubated for 10 minutes before the addition of the labelled substrate ^3 H-hippuryl-glycylglycine. […] ACE cleaves the hippuryl-glycyl bond to form the dipeptide glycyl-glycine and ^3 H-hippuric acid. The ^3 H-hippuric acid is then extracted with ethyl acetate and the ACE inhibition of a given sample calculated on the basis of the ^3 H-hippuric acid generated.

IC50 [nM] | SMILES
3800 | CCOC(=O)[C@@H]1C[C@@H]2CCCC[C@@H]2N1C(=O)CCSC(C)=O (relative stereo) [V: R=C2H5; R1=H; R2=CH3CO; --, Ethyl (2α, 3aβ, 7aβ)-Octahydro-1-[3-(acetylthio)propanoyl]-1H-indole-2-carboxylate]
58 | CC(C)(C)C(=O)SCCC(=O)N1[C@H](C(=O)O)C[C@@H]2CCCC[C@@H]21 (relative stereo) [V: R=H; R1=H; R2=(CH3)3CCO; dl]
450 | CC(=O)SCCC(=O)N1[C@H](C(=O)O)C[C@@H]2CCCC[C@@H]21 (relative stereo) [V: R=H; R1=H; R2=CH3CO; --, (2α, 3aβ, 7aβ)-Octahydro-1-[3-(acetylthio)propanoyl]-1H-indole-2-carboxylic Acid]
21 | O=C(O)[C@@H]1C[C@@H]2CCCC[C@@H]2N1C(=O)CCS (relative stereo) [V: R=H; R1=H; R2=H; --, (2α, 3aβ, 7aβ)-Octahydro-1-(3-mercaptopropanoyl)-1H-indole-2-carboxylic Acid]
5.2 | CC(CS)C(=O)N1[C@H](C(=O)O)C[C@@H]2CCCC[C@@H]21 (single isomer, unassigned; diastereomer a) [V: R=H; R1=CH3; R2=H; l, A, (1)-(2α, 3aβ, 7aβ)-Octahydro-1-(3-mercapto-2-methylpropanoyl)-1H-2-carboxylic Acid (Diastereomer A), Dicyclohexylamine Salt]
540 | CC(CSC(=O)c1ccccc1)C(=O)N1[C@H](C(=O)O)C[C@@H]2CCCC[C@@H]21 (single isomer, unassigned; diastereomer a) [V: R=H; R1=CH3; R2=PhCO; l, A, (1)-(2α, 3aβ, 7aβ)-Octahydro-1-[3-(benzoylthio)-2-methylpropanoyl]-1H-indole-2-carboxylic Acid (Diastereomer A)]
